Patent publication US20150152395A1, “CHIMERIC LUCIFERASES” (Connecticut College, priority 2012, published 2015)

Experiments:
Assay in all cases: Steady-state kinetic constants, bioluminescence activity
[1] = molecular target: T1, Photinus pyralis luciferase variant Ppy RE-TS5/I351V, PpyRE-TS (SEQ ID NO: 24) with Ile457Val/Ala482Gly/His489Lys/Ala503Asn/Lys543Gln/Ile351Val, SEQ ID NO: 14 (Photinus pyralis, UniProt P08659, A215L/A482G/A503N/E354K/F295L/H489K/I232A/I351V/I457V/K543Q/S284T/T214A); type: biochemical
T1 construct: N-terminal GPLGS; pGEX-6P-2 GST fusion (tag cleaved), E. coli BL21

[2] = molecular target: T2, Photinus pyralis luciferase PpyWT variant Ppy19, Ppy14 plus Leu530Ile/Lys534Val/Ile540Lys/Ala542Pro/Lys543Gln (Photinus pyralis, UniProt P08659, A450P/A482G/A503N/A509H/A542P/D475S/D476E/H489K/I457V/I540K/K511R/K534V/K543Q/L472V/L487M/L530I/T507V/T508N/V517R); type: biochemical
T2 construct: N-terminal GPLGS; pGEX-6P-2 GST fusion (tag cleaved), E. coli BL21

[3] = molecular target: T3, Photinus pyralis luciferase variant Ppy GR-TS (Photinus pyralis, UniProt P08659, A215L/E354K/F250S/F295L/G246A/I232A/T214A/V241I); type: biochemical
T3 construct: N-terminal GPLGS; pGEX-6P-2 GST fusion (tag cleaved), E. coli BL21

[4] = molecular target: T4, Photinus pyralis luciferase PpyWT variant Ppy14, Ala450Pro/Ile457Val/Leu472Val/Asp475Ser/Asp476Glu/Ala482Gly/Leu487Met/His489Lys/Ala503Asn/Thr507Val/Thr508Asn/A (Photinus pyralis, UniProt P08659, A450P/A482G/A503N/A509H/D475S/D476E/H489K/I457V/K511R/L472V/L487M/T507V/T508N/V517R); type: biochemical
T4 construct: N-terminal GPLGS; pGEX-6P-2 GST fusion (tag cleaved), E. coli BL21

[5] = molecular target: T5, Photinus pyralis luciferase variant Ppy WT-TS5/I351V, PpyWT-TS (SEQ ID NO: 22) with Ile457Val/Ala482Gly/His489Lys/Ala503Asn/Lys543Gln/Ile351Val, SEQ ID NO: 12 (Photinus pyralis, UniProt P08659, A215L/A482G/A503N/E354K/F295L/H489K/I232A/I351V/I457V/K543Q/T214A); type: biochemical
T5 construct: N-terminal GPLGS; pGEX-6P-2 GST fusion (tag cleaved), E. coli BL21

[6] = system: Ppy GR-TSLit, chimeric luciferase of Ppy GR-TS N-domain and LitWT C-domain; type: biochemical, Photinus pyralis / Luciola italica
Procedure: (§1) Reactions were initiated by injection of solutions of the substrate being maintained at saturating concentration. Kinetic constants were determined using a nonlinear least squares method of the Enzyme Kinetics Pro software (SynTex), which fits data from the Michalis-Menten equation to a rectangular hyperbola. The corresponding kcat values were obtained by dividing the Vmax values by the amount (μmol) of each luciferase in the assay mixtures.

[7] = system: PpyLit (chimeric luciferase, SEQ ID NO: 8) variant S284T/F465R; type: biochemical, Photinus pyralis / Luciola italica
Procedure: as §1

[8] = system: PpyLit (chimeric luciferase, SEQ ID NO: 8) variant I351V/E354K/F465R; type: biochemical, Photinus pyralis / Luciola italica
Procedure: as §1

[9] = system: PpyLit (chimeric luciferase, SEQ ID NO: 8) variant S284T/I351V/E354K; type: biochemical, Photinus pyralis / Luciola italica
Procedure: as §1

[10] = system: PpyLit (chimeric luciferase, SEQ ID NO: 8) variant I351V/E354K; type: biochemical, Photinus pyralis / Luciola italica
Procedure: as §1

[11] = system: PpyLit (chimeric luciferase, SEQ ID NO: 8) variant I232A/E354K; type: biochemical, Photinus pyralis / Luciola italica
Procedure: as §1

[12] = system: PpyLit (chimeric luciferase, SEQ ID NO: 8) variant S284T; type: biochemical, Photinus pyralis / Luciola italica
Procedure: as §1

[13] = system: Ppy RE-TSLit, chimeric luciferase of Ppy RE-TS N-domain and LitWT C-domain; type: biochemical, Photinus pyralis / Luciola italica
Procedure: as §1

[14] = system: PpyLit, chimeric luciferase of PpyWT residues 1-439 and LitWT residues 440-550, SEQ ID NO: 8; type: biochemical, Photinus pyralis / Luciola italica
Procedure: as §1

[15] = system: PpyLit (chimeric luciferase, SEQ ID NO: 8) variant F465R; type: biochemical, Photinus pyralis / Luciola italica
Procedure: as §1

[16] = system: PpyLit (chimeric luciferase, SEQ ID NO: 8) variant I232A/I351V/E354K; type: biochemical, Photinus pyralis / Luciola italica
Procedure: as §1

[17] = molecular target: T6, 6×His-PpyWT, Photinus pyralis luciferase PpyWT with N-terminal peptide MRGSHHHHHHGS (SEQ ID NO: 27) in place of GPLGS (Photinus pyralis, UniProt P08659); type: biochemical
T6 construct: pQE-30, E. coli; Ni-NTA purified

[18] = system: LitPpy, chimeric luciferase of LitWT residues 1-439 and PpyWT residues 440-550; type: biochemical, Luciola italica / Photinus pyralis
Procedure: as §1

[19] = read-out: Km Mg-ATP, pH 7.8, LH2 saturating
[20] = pH 7.8, LH2 saturating, read-out: Km Mg-ATP

T6 sequence (P08659 whole entry): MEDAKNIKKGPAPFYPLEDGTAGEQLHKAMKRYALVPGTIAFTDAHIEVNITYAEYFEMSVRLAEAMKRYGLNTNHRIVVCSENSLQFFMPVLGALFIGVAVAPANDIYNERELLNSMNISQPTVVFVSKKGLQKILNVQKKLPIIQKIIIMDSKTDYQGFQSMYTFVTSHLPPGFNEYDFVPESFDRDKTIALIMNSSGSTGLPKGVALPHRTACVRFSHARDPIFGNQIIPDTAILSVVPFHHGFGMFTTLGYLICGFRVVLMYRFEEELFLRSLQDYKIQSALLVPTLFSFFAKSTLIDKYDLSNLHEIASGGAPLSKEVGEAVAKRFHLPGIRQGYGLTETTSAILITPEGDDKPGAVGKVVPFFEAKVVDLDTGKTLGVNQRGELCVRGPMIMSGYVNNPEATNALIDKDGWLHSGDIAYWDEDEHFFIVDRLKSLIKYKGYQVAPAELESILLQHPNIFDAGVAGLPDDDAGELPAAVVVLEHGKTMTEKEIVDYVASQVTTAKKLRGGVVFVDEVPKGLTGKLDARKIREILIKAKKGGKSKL
T3 sequence (P08659 whole entry T214A/A215L/I232A/V241I/G246A/F250S/F295L/E354K, the tested form may be a part): as the sequence (P08659 whole entry) above, with T214A, A215L, I232A, V241I, G246A, F250S, F295L, E354K counted along it
T4 sequence (P08659 whole entry A450P/I457V/L472V/D475S/D476E/A482G/L487M/H489K/A503N/T507V/T508N/A509H/K511R/V517R, the tested form may be a part): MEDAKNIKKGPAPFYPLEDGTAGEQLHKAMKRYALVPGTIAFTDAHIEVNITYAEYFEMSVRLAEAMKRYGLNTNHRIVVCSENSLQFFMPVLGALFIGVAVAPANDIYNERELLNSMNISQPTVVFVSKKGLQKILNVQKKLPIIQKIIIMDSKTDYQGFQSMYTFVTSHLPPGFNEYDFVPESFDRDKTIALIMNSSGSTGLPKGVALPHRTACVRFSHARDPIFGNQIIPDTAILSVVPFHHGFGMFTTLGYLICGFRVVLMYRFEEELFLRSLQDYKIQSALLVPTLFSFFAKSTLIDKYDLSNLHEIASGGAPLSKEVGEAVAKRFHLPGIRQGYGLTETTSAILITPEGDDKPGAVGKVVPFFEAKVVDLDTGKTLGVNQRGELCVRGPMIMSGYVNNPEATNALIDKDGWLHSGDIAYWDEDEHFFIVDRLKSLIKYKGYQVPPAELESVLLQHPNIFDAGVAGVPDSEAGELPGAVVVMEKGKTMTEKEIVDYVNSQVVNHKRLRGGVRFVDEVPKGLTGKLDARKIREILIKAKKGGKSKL
T1 sequence (P08659 whole entry T214A/A215L/I232A/S284T/F295L/I351V/E354K/I457V/A482G/H489K/A503N/K543Q, the tested form may be a part): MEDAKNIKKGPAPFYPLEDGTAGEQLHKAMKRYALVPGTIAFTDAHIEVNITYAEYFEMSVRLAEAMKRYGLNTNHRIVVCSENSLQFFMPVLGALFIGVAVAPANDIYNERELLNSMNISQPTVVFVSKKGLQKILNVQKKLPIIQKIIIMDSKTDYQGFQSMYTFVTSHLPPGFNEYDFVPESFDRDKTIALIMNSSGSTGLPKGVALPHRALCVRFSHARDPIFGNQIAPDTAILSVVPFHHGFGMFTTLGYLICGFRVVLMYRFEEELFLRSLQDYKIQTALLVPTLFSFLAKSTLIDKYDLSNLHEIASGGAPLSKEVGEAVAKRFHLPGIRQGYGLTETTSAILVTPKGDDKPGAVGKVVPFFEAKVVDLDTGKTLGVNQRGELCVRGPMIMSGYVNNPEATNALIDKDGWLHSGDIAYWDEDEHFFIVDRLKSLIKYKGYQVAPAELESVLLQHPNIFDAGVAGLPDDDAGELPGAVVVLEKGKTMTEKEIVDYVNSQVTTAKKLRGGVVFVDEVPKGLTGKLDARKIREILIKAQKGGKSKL
T5 sequence (P08659 whole entry T214A/A215L/I232A/F295L/I351V/E354K/I457V/A482G/H489K/A503N/K543Q, the tested form may be a part): as the sequence (P08659 whole entry T214A/A215L/I232A/S284T/F295L/I351V/E354K/I457V/A482G/H489K/A503N/K543Q, the tested form may be a part) above, with T284S counted along it

Compound `Nc1ncnc2c1ncn2[C@@H]1O[C@H](COP(=O)(O)OP(=O)(O)OP(=O)(O)O)[C@@H](O)[C@H]1O` [Mg-ATP] has a kcat/Km ([1]; kcat divided by Mg-ATP Km) of 1290 ± 140 M⁻¹ s⁻¹, a Km [1, 19] of 93 ± 19 µM and a kcat/Km ([2]; kcat divided by Mg-ATP Km) of 5990 ± 110 M⁻¹ s⁻¹. It also gave a Km [2, 19] of 50 ± 5 µM, a kcat/Km ([3]; kcat divided by Mg-ATP Km) of 500 ± 100 M⁻¹ s⁻¹ and a Km [3, 19] of 163 ± 16 µM. The kcat/Km ([4]; kcat divided by Mg-ATP Km) was 6340 ± 110 M⁻¹ s⁻¹, the Km [4, 19] was 41 ± 3 µM and the kcat/Km ([5]; kcat divided by Mg-ATP Km) was 3160 ± 70 M⁻¹ s⁻¹. It also gave a Km [5, 19] of 79 ± 5 µM, a kcat/Km ([6]; kcat divided by Mg-ATP Km) of 170 ± 70 M⁻¹ s⁻¹ and a Km [6, 20] of 466 ± 36 µM. It also gave a kcat/Km ([7]; kcat divided by Mg-ATP Km) of 1670 ± 140 M⁻¹ s⁻¹, a Km [7, 20] of 60 ± 6 µM and a kcat/Km ([8]; kcat divided by Mg-ATP Km) of 3090 ± 90 M⁻¹ s⁻¹. It also gave a Km [8, 20] of 94 ± 8 µM, a kcat/Km ([9]; kcat divided by Mg-ATP Km) of 1360 ± 140 M⁻¹ s⁻¹ and a Km [9, 20] of 95 ± 9 µM. It also gave a kcat/Km ([10]; kcat divided by Mg-ATP Km) of 3750 ± 150 M⁻¹ s⁻¹, a Km [10, 20] of 80 ± 10 µM and a kcat/Km ([11]; kcat divided by Mg-ATP Km) of 3290 ± 100 M⁻¹ s⁻¹. For the same compound, the Km [11, 20] was 76 ± 4 µM, the kcat/Km ([12]; kcat divided by Mg-ATP Km) was 1120 ± 150 M⁻¹ s⁻¹ and the Km [12, 20] was 89 ± 10 µM. The kcat/Km ([13]; kcat divided by Mg-ATP Km) was 1130 ± 120 M⁻¹ s⁻¹, the Km [13, 20] was 79 ± 9 µM and the “enhanced catalytic efficiency (kcat/Km ATP)” value ([14]; compared to PpyWT) was 2.9 fold. For the same compound, the kcat/Km ([14]; kcat divided by Mg-ATP Km) was 6040 ± 120 M⁻¹ s⁻¹, the Km [14, 20] was 53 ± 5 µM and the kcat/Km ([15]; kcat divided by Mg-ATP Km) was 3430 ± 100 M⁻¹ s⁻¹. For the same compound, the Km [15, 20] was 99 ± 6 µM, the kcat/Km ([16]; kcat divided by Mg-ATP Km) was 1860 ± 120 M⁻¹ s⁻¹ and the Km [16, 20] was 129 ± 14 µM. It also gave a kcat/Km ([17]; kcat divided by Mg-ATP Km) of 1930 ± 110 M⁻¹ s⁻¹, a Km [17, 20] of 93 ± 9 µM and a kcat/Km ([18]; kcat divided by Mg-ATP Km) of 1180 ± 60 M⁻¹ s⁻¹. It also gave a Km [18, 20] of 188 ± 10 µM.
